Consider six compounds from patent US9061967B2 (priority 2010, dated 2015).

Test [1] deals with rice blast (Magnaporthe grisea). As to the kind of experiment: microbe, parasite or virus in culture. Type of test: cell-based. The note with it: for Activity against rice blast in vitro (%): Table 10; for inhibition at 0.03 µg/mL / inhibition at 0.3 µg/mL: Pyricularia oryzae, read-out: Inhibition rate against rice blast (%).
The test system of test [2] is corn rust (Puccinia sorghi).
The subject of test [3] is cucumber gray mold (Botrytis cinerea). As to the kind of experiment: microbe, parasite or virus in culture. The class given is cell-based. The note with it: read-out: Inhibition rate against cucumber gray mold (%).
Test [4] concerns cucumber downy mildew (Pseudoperonospora cubensis). As to the kind of experiment: whole plant or invertebrate. Type of test: in vivo. The note with it: for pest or weed control at 3.125 µg/mL / pest or weed control at 12.5 µg/mL / pest or weed control at 50 µg/mL: Pseudoperonospora cubensis, 168 h, read-out: Protectant activity (%) against cucumber downy mildew in vivo.
The test system of test [5] is cotton nthracnose (Colletotrichum gossypii Southw.). The class given is cell-based.
Test [6] relates to rice sheath blight (Rhizoctonia solani Palo). The class given is cell-based.
Test [7] relates to cucumber fusarium wilt (Fusarium oxysporum f. sp.). Type of test: cell-based.
Test [8] deals with rape sclertiniose (Sclerotinia sclerotiorum). Type of test: cell-based.
Test [9] deals with pear scab (Fusicladium pirina). The class given is cell-based.

Where “and” joins values, the source holds several entries; their conditions need not be identical. Equal entries are not always repeated.

A word on the inhibition: it is the drop in the measured response relative to a control, in per cent. For `Cc1cc([N+](=O)[O-])cc([N+](=O)[O-])c1Nc1c(Cl)cc(Cl)cc1Cl` [contrast ACS], the “Activity against rice blast in vitro (%)” value in test [1] (0.9 mg/L), in [1] (2.8 mg/L), in [1] (8.3 mg/L) and in test [1] (25 mg/L) was 0% throughout. For the same compound, the inhibition at 0.03 µg/mL in [1] and in test [3] was 0% throughout. Besides, the inhibition at 0.3 µg/mL in [1] and in test [3] was 0% each time. Moreover, the “Protectant activity (%) against corn rust in vivo” value in [2] is 0%. For the same compound, the inhibition at 0.1 µg/mL in test [3] was 0%. Also, in [4], the pest or weed control at 3.125 µg/mL was found to be 0%. The pest or weed control at 12.5 µg/mL in [4] came out at 0%. Moreover, the pest or weed control at 50 µg/mL in test [4] stood at 0%. For the same compound, in [4] (in vivo), the “Protectant activity against cucumber downy mildew in vivo (%)” value was 0%.
Consider `COc1ccc(C(=CC(=O)N2CCOCC2)c2ccc(Cl)cc2)cc1OC` [dimethomorph], for which, in test [4], the pest or weed control at 3.125 µg/mL stood at 35%, the pest or weed control at 12.5 µg/mL turned out to be 80% and the pest or weed control at 50 µg/mL came out at 100%.
As to `Cc1c(Cl)c([N+](=O)[O-])cc([N+](=O)[O-])c1Cl` [intermediate B], in test [4], the pest or weed control at 3.125 µg/mL stood at 0%, the pest or weed control at 12.5 µg/mL amounted to 0% and the pest or weed control at 50 µg/mL came to 0%.
For `O=[N+]([O-])c1cc(C(F)(F)F)c(Cl)c([N+](=O)[O-])c1Nc1ncc(C(F)(F)F)cc1Cl` [fluazinam], in test [1], the inhibition at 0.03 µg/mL is 50% and the inhibition at 0.3 µg/mL was determined as 100%. For the same compound, the “Activity in vitro (%), cotton nthracnose” value in [5] is 100% and 97% and 71%. The “Activity in vitro (%), rice sheath blight” value in [6] was 97% and 83% and 69%. Further, the “Activity in vitro (%), cucumber fusarium wilt” value in [7] is 92% and 85% and 56%. Besides, the “Activity in vitro (%), rape sclertiniose” value in test [8] is 100% and 97% and 57%. Moreover, the “Activity in vitro (%), pear scab” value in test [9] was 94% and 89% and 47%. Moreover, in test [3], the inhibition at 0.03 µg/mL turned out to be 0%, the inhibition at 0.1 µg/mL came out at 80% and the inhibition at 0.3 µg/mL amounted to 100%. Further, in [4], the pest or weed control at 3.125 µg/mL was 40%, the pest or weed control at 12.5 µg/mL came to 95% and the pest or weed control at 50 µg/mL was 100%.
As to `Nc1c(Cl)cc([N+](=O)[O-])cc1Cl` [intermediate C], in [4], the pest or weed control at 3.125 µg/mL was found to be 0%, the pest or weed control at 12.5 µg/mL was determined as 0% and the pest or weed control at 50 µg/mL is 0%.
Regarding `c1ccc(Nc2ccccc2)cc1` [diphenylamine], in [4], the pest or weed control at 3.125 µg/mL was found to be 0%, the pest or weed control at 12.5 µg/mL was 0% and the pest or weed control at 50 µg/mL worked out at 0%.
